Assay results as given in patent US20140303105A1, “Primycin and components thereof for use in the treatment or prevention of infections caused by specific pathogens” (PANNONPHARMA GYÓGYSZERGYÁRTÓ ZRT., priority 2011, published 2014).

Tests used:
[1] = system: Staphylococcus aureus, methicillin susceptible; assay: Standard microdilution susceptibility test, clinical isolates; format: cell-based; conditions: 10 clinical isolates
[2] = system: Staphylococcus aureus, methicillin resistant; assay: as above; format: cell-based; conditions: 10 clinical isolates
[3] = system: Streptococcus pneumoniae, penicillin resistant; assay: as above; format: cell-based
[4] = system: Bacillus subtilis ATCC 6633; assay: Microdilution MIC, ATCC reference strains; format: cell-based
Method: (§1) Identification and characterization of resistance patterns of these bacteria were performed by standard methods.
(§2) When forming the test groups we attached great importance to the increasing incidence of drug-resistant microbes causing therapeutic problems. Most important of them are methicillin-resistant Staphylococcus aureus (MRSA), methicillin-resistant coagulase-negative Staphylococcus spp. (MRCoNS), penicillin-resistant Streptococcus pneumoniae (pneumococcus), vancomycin-resistant Enterococcus spp. (VRE). Pneumococcus isolates represented various serotypes, VRE isolates belonged to various species. Moreover, vancomycin-resistance of VRE isolates was based on different genetic backgrounds. Antibiotic-resistant strains were also represented among international reference strains, for example methicillin-resistant Staphylococcus aureus ATCC 43300 (MRSA), Staphylococcus aureus with decreased vancomycin susceptibility ATCC 700698 and 700699 (vancomycin intermediate Staphylococcus aureus—VISA), mupirocin-resistant Staphylococcus aureus ATCC BAA1708 and vancomycin-resistant Enterococcus faecalis ATCC 51299 (VRE).
(§3) Susceptibility tests were performed according to the standard microdilution method (NCCLS (CLSI) M7-A7).
(§4) The lowest concentration at which no bacterial growth was observed after the incubation period is the Minimal Inhibitory Concentration (MIC). The MIC value is inversely proportional to the antimicrobial efficacy. MIC values of antimicrobial agents can differ by species or even by bacterial strains within species.

[5] = system: Enterococcus faecalis ATCC 51299 (VRE); assay: Microdilution MIC, ATCC reference strains; format: cell-based
Method: as §1, §2, §3, §4

[6] = system: Enterococcus hirae ATCC 8043; assay: Microdilution MIC, ATCC reference strains; format: cell-based
Method: as §1, §2, §3, §4

[7] = system: Escherichia coli ATCC 25922; assay: Microdilution MIC, ATCC reference strains; format: cell-based
Method: as §1, §2, §3, §4

[8] = system: Staphylococcus aureus ATCC 25923; assay: Microdilution MIC, ATCC reference strains; format: cell-based
Method: as §1, §2, §3, §4

[9] = system: Staphylococcus aureus ATCC 29213; assay: Microdilution MIC, ATCC reference strains; format: cell-based
Method: as §1, §2, §3, §4

[10] = system: Staphylococcus aureus ATCC 43300 (MRSA); assay: Microdilution MIC, ATCC reference strains; format: cell-based
Method: as §1, §2, §3, §4

[11] = system: Staphylococcus aureus ATCC 700698 (VISA); assay: Microdilution MIC, ATCC reference strains; format: cell-based
Method: as §1, §2, §3, §4

[12] = system: Staphylococcus aureus ATCC 700699 (VISA); assay: Microdilution MIC, ATCC reference strains; format: cell-based
Method: as §1, §2, §3, §4

[13] = system: Staphylococcus aureus ATCC BAA1708 (mupirocin-resistant); assay: Microdilution MIC, ATCC reference strains; format: cell-based
Method: as §1, §2, §3, §4

Streptococcus ATCC 49619 = assay: Microdilution MIC, ATCC reference strains; format: cell-based
Method: as §1, §2, §3, §4

[14] = system: Staphylococcus aureus 7503; conditions: cited from earlier work
Diphteroides 8264 = conditions: cited from earlier work
[15] = system: Serotype β Streptococcus 8252; conditions: cited from earlier work
Streptococcus mitis 5728 = conditions: cited from earlier work
[16] = system: Staphylococcus hominis 7835; conditions: cited from earlier work
[17] = system: Streptococcus simulans 7866; conditions: cited from earlier work
Micrococcus spp. = conditions: cited from earlier work
[18] = system: Staphylococcus aureus ATCC 25923; conditions: cited from earlier work
[19] = system: Bacillus subtilis ATCC 6633; conditions: cited from earlier work
S. aureus = conditions: by Bryskier; cited from earlier work
Coryneform(s) = conditions: by Bryskier; cited from earlier work
Enterobacter cloacae = conditions: by Bryskier; cited from earlier work
Gram-negative species = conditions: Horváth 1979; the patent calls the statement unfounded; cited from earlier work
[20] = system: enterococci and S. pyogenes; conditions: Bryskier 2005; cited from earlier work

Primycin
MIC 50% [1]: 0.06 µg/mL
MIC 90% [1]: 0.06 µg/mL
MIC Range [1]: 0.06-0.06 mg/L
Ratio of Sensitive/Total [1]: 10/10
MIC 50% [2]: 0.06 µg/mL
MIC 90% [2]: 0.06 µg/mL
MIC Range [2]: 0.06-0.06 mg/L
Ratio of Sensitive/Total [2]: 10/10
MIC 50% ([3]; 10 clinical isolates): 0.5 µg/mL
MIC 90% ([3]; 10 clinical isolates): 1 µg/mL
MIC Range ([3]; 10 clinical isolates): 0.5 to 1 µg/mL
Ratio of Sensitive/Total ([3]; 10 clinical isolates): 10/10
MIC ([3]; single isolate, serotype 23(F)): 0.5 µg/mL
Primycin MIC [4]: 0.03 µg/mL
Primycin MIC [5]: 1 µg/mL
Primycin MIC [6]: 0.5 µg/mL
Primycin MIC [7]: >64 µg/mL
Primycin MIC [8]: 0.06 µg/mL
Primycin MIC [9]: 0.06 µg/mL
Primycin MIC [10]: 0.06 µg/mL
Primycin MIC [11]: 0.06 µg/mL
Primycin MIC [12]: 0.125 µg/mL
Primycin MIC [13]: 0.06 µg/mL
Primycin MIC (Streptococcus ATCC 49619): 0.5 µg/mL
MIC [14]: 0.39 µg/mL
MIC (Diphteroides 8264): 50.0 µg/mL
MIC [15]: 1.56 µg/mL
MIC (Streptococcus mitis 5728): 50.0 µg/mL
MIC [16]: 0.39 µg/mL
MIC [17]: 0.39 µg/mL
MIC (Micrococcus spp.): 0.78 µg/mL
MIC [18]: 25.0 µg/mL
MIC [19]: 0.39 µg/mL
MIC (S. aureus): 0.39 µg/mL
MIC (Coryneform(s)): 50 µg/mL
MIC (Enterobacter cloacae): 50 µg/mL
MIC versus Gram-positives (Gram-negative species): hundred times higher
efficacy [20]: moderate efficacy
